# Experimental data from patent US20020049167A1, “Azithromycin as a therapeutic agent for infections with leishmania parasites” (priority 2000, published 2002).
# Key:
# [1] = tested on: Leishmania major; experiment: In vitro susceptibility of Leishmania major amastigotes in murine monocyte-derived bone marrow macrophages (Giemsa counting); type: cell-based; details: for multiplication index: analysis of variance; for percentage of macrophages infected: by day five; for number of amastigotes found in infected cells: day five
# Protocol: Monocyte-derived bone marrow macrophages from C57B1/6 naïve mice. These cells were harvested from the femoral bones and incubated for 7 days at 37° C. in 5% CO2 in complete tissue culture medium [DMEM, 20% heat inactivated fetal calf serum, 1% Penicillin/streptomycin, 1% glutamine, 1% pyruvate, 30% L-cell line supernatant]. After 7 days, 50×10^6 macrophages per mouse donor were recovered from the cultures. The cells were then washed and 1×10^6 macrophages were added to the wells (16 mm diameter) of a 24 well plate at the bottom of which was placed a round glass cover slip. The macrophages were added to the wells in 300 μl of culture medium consisting of RPMI 1640,10% heat inactivated fetal calf serum, 1% Penicillin/streptomycin, 1% glutamine, 2.5% BEPES, and 0.1% 2-mercaptoethanol.
# Cryopreserved amastigotes of Leishmania major (Friedlin strain), originally obtained from footpad lesions of SCID mice, were thawed, washed with medium and counted in a hemocytometer, then re-suspended in complete medium and added to the wells at a concentration of 1 million per well (amastigote/macrophage ratio 1:1) in 50 μl of complete medium. The total volume of media in each well was […].
# Amphotericin B (Fungizone, Gibco) was reconstituted from a lyophilized form and azithromycin (Zithromax, Pfizer) was prepared from a 500 mg-powder vial for IV use; both antibiotics were reconstituted in sterile water and diluted in complete medium to the desired concentration. Amphotericin B was used at a concentration of 1 mg/ml and azithromycin at concentrations of 0.1, 0.6, 3 and 15 μg/ml.
# After mixing the macrophages with the amastigotes, the plates were incubated for 3 hrs. at 37° C. in 5% Co2; at that point the plates were washed with PBS to eliminate non-adherent macrophages and free amastigotes. Medium with or without antibiotics was added to the wells at a final volume of 3 ml. Some of the cultures were removed from the wells at this point and placed in petri dishes containing 50 mls of medium with antibiotics. Amphotericin B was used as a positive control group in all the experiments. The cultures were maintained at 37° C. in 5% CO2 and culture media and antibiotics were changed daily.
# Before adding antibiotics on day 0 and on days 3 and 5, cover slips were recovered from the wells and petri dishes, immediately fixed and stained with Giemsa for counting, which was performed using 1000X magnification with immersion oil. All the experiments were carried out in duplicate.
# Two cover slips were recovered from each time point and the data obtained for each slide was as follows: 200 to 300 macrophages were counted, number of infected macrophages per 100 macrophages and number of amastigotes per 100 macrophages was determined. The results reported are the mean values of those two parasite counts. Experiments were repeated a minimum of two times.
# [2] = tested on: macrophages; details: levels versus that obtained in the serum (Gladue et al. 1989); cited from earlier work
# [3] = amphotericin B at 1 mg/ml, Day 0 (before adding antibiotics)
# [4] = amphotericin B at 1 mg/ml, Day 3
# [5] = amphotericin B at 1 mg/ml, Day 5
# [6] = 0.1 μg/ml azithromycin, Day 0 (before adding antibiotics)
# [7] = 0.6 μg azithromycin, volume 3 ml, five days
# [8] = 0.6 μg/ml azithromycin, Day 0 (before adding antibiotics)
# [9] = 3.0 μg azithromycin, volume 3 ml, five days
# [10] = 3.0 μg/ml azithromycin, Day 0 (before adding antibiotics)
# [11] = 15 μg/ml azithromycin, Day 0 (before adding antibiotics)
compound,measurement,setting,value
C[C@@H]1[C@H](O)[C@@H](C)/C=C/C=C/C=C/C=C/C=C/C=C/C=C/[C@H](O[C@@H]2O[C@H](C)[C@@H](O)[C@H](N)[C@@H]2O)C[C@@H]2O[C@](O)(C[C@@H](O)C[C@@H](O)[C@H](O)CC[C@@H](O)C[C@@H](O)CC(=O)O[C@H]1C)C[C@H](O)[C@H]2C(=O)O [Amphotericin B],multiplication index,[1]; 1 mg/ml of amphotericin B,significant reduction
same,Number of Amastigotes/100 macrophages,[1]; [3],27 /100 macrophages
same,Percent Infected Macrophages,[1]; [3],16%
same,Number of Amastigotes/100 macrophages,[1]; [4],1 /100 macrophages
same,Percent Infected Macrophages,[1]; [4],1%
same,Number of Amastigotes/100 macrophages,[1]; [5],0 /100 macrophages
same,Percent Infected Macrophages,[1]; [5],0%
same,percentage of macrophages infected,[1]; 1 mg/ml of amphotericin B,significant decrease
same,number of amastigotes found in infected cells,[1]; 1 mg/ml of amphotericin B,significant decrease
CC[C@H]1OC(=O)[C@H](C)[C@@H](O[C@H]2C[C@@](C)(OC)[C@@H](O)[C@H](C)O2)[C@H](C)[C@@H](O[C@@H]2O[C@H](C)C[C@H](N(C)C)[C@H]2O)[C@](C)(O)C[C@@H](C)CN(C)[C@H](C)[C@@H](O)[C@]1(C)O [azithromycin],Number of Amastigotes/100 macrophages,[1]; [6],27 /100 macrophages
same,Percent Infected Macrophages,[1]; [6],16%
same,Number of Amastigotes/100 macrophages,"[1]; 0.1 μg/ml azithromycin, Day 3",10 /100 macrophages
same,Percent Infected Macrophages,"[1]; 0.1 μg/ml azithromycin, Day 3",8%
same,Number of Amastigotes/100 macrophages,"[1]; 0.1 μg/ml azithromycin, Day 5",38 /100 macrophages
same,Percent Infected Macrophages,"[1]; 0.1 μg/ml azithromycin, Day 5",24%
same,Number of Amastigotes/100 macrophages,"[1]; 0.6 μg azithromycin, five days",11 /100 macrophages
same,Number of Amastigotes/100 macrophages,[1]; [7],23 /100 macrophages
same,Percent Infected Macrophages,[1]; [7],17%
same,Percent Infected Macrophages,"[1]; 0.6 μg azithromycin, volume 50 ml, five days",10%
same,Number of Amastigotes/100 macrophages,[1]; [8],27 /100 macrophages
same,Percent Infected Macrophages,[1]; [8],16%
same,Number of Amastigotes/100 macrophages,"[1]; 0.6 μg/ml azithromycin, Day 3",14 /100 macrophages
same,Percent Infected Macrophages,"[1]; 0.6 μg/ml azithromycin, Day 3",28%
same,Number of Amastigotes/100 macrophages,"[1]; 0.6 μg/ml azithromycin, Day 5",11 /100 macrophages
same,Percent Infected Macrophages,"[1]; 0.6 μg/ml azithromycin, Day 5",17%
same,Number of Amastigotes/100 macrophages,"[1]; 3.0 μg azithromycin, five days",13 /100 macrophages
same,Number of Amastigotes/100 macrophages,[1]; [9],11 /100 macrophages
same,Percent Infected Macrophages,[1]; [9],9%
same,Percent Infected Macrophages,"[1]; 3.0 μg azithromycin, volume 50 ml, five days",11%
same,Number of Amastigotes/100 macrophages,[1]; [10],27 /100 macrophages
same,Percent Infected Macrophages,[1]; [10],16%
same,Number of Amastigotes/100 macrophages,"[1]; 3.0 μg/ml azithromycin, Day 3",45 /100 macrophages
same,Percent Infected Macrophages,"[1]; 3.0 μg/ml azithromycin, Day 3",31%
same,Number of Amastigotes/100 macrophages,"[1]; 3.0 μg/ml azithromycin, Day 5",13 /100 macrophages
same,Percent Infected Macrophages,"[1]; 3.0 μg/ml azithromycin, Day 5",9%
same,Number of Amastigotes/100 macrophages,[1]; [11],27 /100 macrophages
same,Percent Infected Macrophages,[1]; [11],16%
same,Number of Amastigotes/100 macrophages,"[1]; 15 μg/ml azithromycin, Day 3",13 /100 macrophages
same,Percent Infected Macrophages,"[1]; 15 μg/ml azithromycin, Day 3",10%
same,Number of Amastigotes/100 macrophages,"[1]; 15 μg/ml azithromycin, Day 5",12 /100 macrophages
same,Percent Infected Macrophages,"[1]; 15 μg/ml azithromycin, Day 5",9%
same,multiplication index,[1]; 0.6-15 μg/ml of azithromycin,significant reduction
same,ability to limit the replication of L. major (multiplication index) compared with 1 mg/ml of amphotericin B,[1]; 3 and 15 μg/ml of azithromycin,statistically equal
same,50% effective dose (ED50),[1]; L. major in murine macrophages in vitro,< 0.6 µg/mL
same,percentage of macrophages infected,[1]; 0.6-15 μg/ml of azithromycin,significant decrease
same,number of amastigotes found in infected cells,[1]; 3.0-15 μg/ml of azithromycin,significant decrease
same,"drug accumulation in the tissue cells, especially in macrophages, relative to serum",[2],110 times
